Laboratory results as given in US20260201008A1, “SECRETIN-DERIVED GLP1R SELECTIVE AGONISTS” (GUBRA A/S, priority 2023, published 2026).
Read-outs that look alike come from different tables or passages of the source. Numbered stars: 1 amine (or outer) side, 2 acyl side, 3 side chain; on linkers, the order of the positions; unused ones are H or OH. Square brackets hold non-standard residues; d marks the D form. Side chains are listed from the residue outwards. Peptide text beside a SMILES is read from it. * marks the point of attachment. C20 diacid = O=C(O)CCCCCCCCCCCCCCCCCCC(=O)*; γGlu = O=C(O)[C@H](CCC(=O)[*:2])N[*:1]; AEEA = NCCOCCOCC(=O)O; Aib = CC(C)(N)C(=O)O

Key:
[1] = Fibril formation of crude library peptides (Thioflavin T); type: physicochemical; parameters: key: average ThT fluorescence emission at 480 nm (ex 450 nm), raw units; details: Physical stability of peptides
Protocol: (§1) Peptides were dissolved in buffers (50 mM sodium acetate at pH 4.0, or 50 mM sodium phosphate at pH 7.0) to 267 μM and incubated for 1-2 hours at room temperature. The samples were then divided into two replicates of 80 μl in a black 384 well plate (μ-clear, Greiner Bio-One) and mixed with Thioflavin T (ThT) to a final concentration of 4 μM. The plate was centrifuged for 2 min at 2000 rpm to remove air bubbles, sealed, and placed in a plate reader (CLARIOstar, BMG). Firstly, turbidity of the samples was measured as the absorbance at 600 nm. Secondly, the plate reader temperature was set to 40° C. and the fluorescence was measured every 10 min for 72 hours by exciting the ThT at 450 nm and measuring the emission at 480 nm. Samples were stressed by shaking the plate at 700 rpm (linear) for five minutes before every measurement, and fibril formation was determined as the average emission for each sample.

GLP1R = GLP1R (Homo sapiens, UniProt P43220); experiment: hGLP1R potency, cAMP accumulation in CHO-K1 cells stably overexpressing hGLP1R; type: cell-based; parameters: host or cells: CHO-K1; details: for EC50: cAMP accumulation, CHO-K1 cells overexpressing hGLP1R; for SCTR EC50/GLP1R EC50 ratio: selectivity for hGLP1R over hSCTR, cAMP accumulation in CHO-K1 cells; for Selectivity: SCTR EC50/GLP1R EC50 ratio
Outline: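 2000 cells/well, DPBS + 0.05% casein + 0.5 mM IBMX; 30 min RT stimulation; HTRF cAMP detection after 1 h. Purified: 3-fold ×11, n=2; crude: 10-fold ×5, n=1. EC50 by variable-slope fit.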

[2] = Turbidity of crude library peptides (absorbance at 600 nm); type: physicochemical; details: Physical stability of peptides
Protocol: as §1

SCTR = SCTR (Homo sapiens, UniProt P47872); experiment: hSCTR potency, cAMP accumulation in CHO-K1 cells stably overexpressing hSCTR; type: cell-based; parameters: alternatively Euroscreen ES-712-AF; FAST-0161L; host or cells: CHO-K1; details: cAMP accumulation, CHO-K1 cells overexpressing hSCTR
Outline: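 Thawed CHO-K1 cells carrying stable hSCTR are plated into casein/IBMX buffer (0.05%, 0.5 mM), dosed immediately for 30 min at room temperature, then cAMP is detected by TR-FRET. Purified peptides run as 11 three-fold dilutions in duplicate, and curves are fitted with variable slope.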

[3] = read-out: hGLP1R pEC50 (converted)
[4] = read-out: hSCTR pEC50 (converted)
[5] = read-out: pEC50 hGLPR1 (converted)
[6] = read-out: pEC50 hSCTR (converted)

Sequence of SCTR (P47872 23-440): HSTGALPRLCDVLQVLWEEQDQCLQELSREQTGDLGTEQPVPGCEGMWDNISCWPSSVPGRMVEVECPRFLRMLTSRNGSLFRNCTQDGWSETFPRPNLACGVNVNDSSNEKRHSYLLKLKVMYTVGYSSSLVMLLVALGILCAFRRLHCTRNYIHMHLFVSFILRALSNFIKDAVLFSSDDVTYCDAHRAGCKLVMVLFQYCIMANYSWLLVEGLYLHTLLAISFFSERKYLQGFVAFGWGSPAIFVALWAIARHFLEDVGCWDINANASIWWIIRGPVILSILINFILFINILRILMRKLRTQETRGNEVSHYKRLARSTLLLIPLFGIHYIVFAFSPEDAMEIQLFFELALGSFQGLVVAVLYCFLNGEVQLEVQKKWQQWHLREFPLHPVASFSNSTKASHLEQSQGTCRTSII
Sequence of GLP1R (P43220 24-463): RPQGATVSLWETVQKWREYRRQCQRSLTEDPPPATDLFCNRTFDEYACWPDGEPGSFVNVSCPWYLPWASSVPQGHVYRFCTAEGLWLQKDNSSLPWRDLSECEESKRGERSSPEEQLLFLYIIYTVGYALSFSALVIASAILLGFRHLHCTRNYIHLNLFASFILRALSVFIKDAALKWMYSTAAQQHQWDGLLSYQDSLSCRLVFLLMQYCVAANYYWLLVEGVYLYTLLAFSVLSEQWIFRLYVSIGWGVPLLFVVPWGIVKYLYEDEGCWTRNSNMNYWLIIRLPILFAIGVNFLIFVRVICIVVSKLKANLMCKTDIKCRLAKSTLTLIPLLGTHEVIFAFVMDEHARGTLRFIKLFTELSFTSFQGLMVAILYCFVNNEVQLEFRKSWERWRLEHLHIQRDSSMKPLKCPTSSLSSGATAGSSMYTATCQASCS

Compound | Fibril formation [1] | EC50 (GLP1R; [3]) [nM] | SCTR EC50/GLP1R EC50 ratio (GLP1R) | Turbidity (pH 7) [2] | EC50 (SCTR; [4]) [nM] | Selectivity (GLP1R) | EC50 (GLP1R; [5]) [nM] | EC50 (SCTR; [6]) [nM]
CC(C)C[C@H](NC(=O)[C@H](Cc1ccccc1)NC(=O)[C@H](CCCNC(=N)N)NC(=O)[C@H](CCC(N)=O)NC(=O)[C@H](CCC(=O)O)NC(=O)[C@H](C)NC(=O)[C@H](C)NC(=O)[C@H](CCC(=O)O)NC(=O)[C@H](CCC(=O)O)NC(=O)[C@H](CCCCNC(=O)COCCOCCNC(=O)COCCOCCNC(=O)CC[C@H](NC(=O)CCCCCCCCCCCCCCCCCCC(=O)O)C(=O)O)NC(=O)[C@H](CC(C)C)NC(=O)[C@H](Cc1ccc(O)cc1)NC(=O)[C@H](CO)NC(=O)[C@@H](NC(=O)[C@H](CC(=O)O)NC(=O)[C@H](CO)NC(=O)[C@@H](NC(=O)[C@H](Cc1ccccc1)NC(=O)[C@@H](NC(=O)CNC(=O)[C@H](CCC(=O)O)NC(=O)C(C)(C)NC(=O)[C@@H](N)Cc1c[nH]cn1)[C@@H](C)O)[C@@H](C)O)C(C)C)C(=O)N[C@@H](CCC(=O)O)C(=O)N[C@@H](Cc1c[nH]cn1)C(=O)N[C@@H](CC(C)C)C(=O)N[C@H](C(N)=O)C(C)C [compound 95] (H-H[Aib]EGTFTSDVSYLK([AEEA-AEEA-γGlu-C20 diacid])EEAAEQRFLEHLV-NH2) | 10160 | 0.02 | 840427 | 0.08 | 15800 | – | – | –
CC(C)C[C@H](NC(=O)[C@H](CCC(=O)O)NC(=O)[C@H](CCCCNC(=O)COCCOCCNC(=O)COCCOCCNC(=O)CC[C@H](NC(=O)CCCCCCCCCCCCCCCCCCC(=O)O)C(=O)O)NC(=O)[C@H](CC(C)C)NC(=O)[C@H](CCCNC(=N)N)NC(=O)[C@H](CO)NC(=O)[C@@H](NC(=O)[C@H](CC(=O)O)NC(=O)[C@H](CO)NC(=O)[C@@H](NC(=O)[C@H](Cc1ccccc1)NC(=O)[C@@H](NC(=O)CNC(=O)[C@H](CCC(=O)O)NC(=O)C(C)(C)NC(=O)[C@@H](N)Cc1c[nH]cn1)[C@@H](C)O)[C@@H](C)O)C(C)C)C(=O)N[C@@H](C)C(=O)N[C@@H](C)C(=O)NC(C)(C)C(=O)N[C@@H](CCC(N)=O)C(=O)N[C@@H](CCCNC(=N)N)C(=O)N[C@@H](Cc1ccccc1)C(=O)N[C@@H](CC(C)C)C(=O)N[C@@H](CCC(=O)O)C(=O)N[C@@H](Cc1c[nH]cn1)C(=O)N[C@@H](CC(C)C)C(=O)N[C@H](C(N)=O)C(C)C [compound 10] (H-H[Aib]EGTFTSDVSRLK([AEEA-AEEA-γGlu-C20 diacid])ELAA[Aib]QRFLEHLV-NH2) | 6765 | – | – | 0.08 | – | 2365 | 0.2 | 501
CC(C)C[C@H](NC(=O)[C@H](Cc1ccccc1)NC(=O)[C@H](CCCNC(=N)N)NC(=O)[C@H](CCC(N)=O)NC(=O)C(C)(C)NC(=O)[C@H](C)NC(=O)[C@H](C)NC(=O)C(C)(C)NC(=O)[C@H](CCC(=O)O)NC(=O)[C@H](CCCCNC(=O)COCCOCCNC(=O)COCCOCCNC(=O)CC[C@H](NC(=O)CCCCCCCCCCCCCCCCCCC(=O)O)C(=O)O)NC(=O)[C@H](CC(C)C)NC(=O)[C@@H](NC(=O)[C@H](CO)NC(=O)[C@@H](NC(=O)[C@H](CC(=O)O)NC(=O)[C@H](CO)NC(=O)[C@@H](NC(=O)[C@H](Cc1ccccc1)NC(=O)[C@@H](NC(=O)CNC(=O)[C@H](CCC(=O)O)NC(=O)C(C)(C)NC(=O)[C@@H](N)Cc1c[nH]cn1)[C@@H](C)O)[C@@H](C)O)C(C)C)[C@@H](C)O)C(=O)N[C@@H](CCC(=O)O)C(=O)N[C@@H](Cc1c[nH]cn1)C(=O)N[C@@H](CC(C)C)C(=O)N[C@H](C(N)=O)C(C)C [compound 32] (H-H[Aib]EGTFTSDVSTLK([AEEA-AEEA-γGlu-C20 diacid])E[Aib]AA[Aib]QRFLEHLV-NH2) | 16551 | – | – | 0.08 | – | 23147 | 0.0251 | 631
CC(C)C[C@H](NC(=O)[C@H](Cc1ccccc1)NC(=O)[C@H](CCCNC(=N)N)NC(=O)[C@H](CCC(N)=O)NC(=O)C(C)(C)NC(=O)[C@H](C)NC(=O)[C@H](C)NC(=O)[C@H](CCC(=O)O)NC(=O)[C@H](CCC(=O)O)NC(=O)[C@H](CCCCNC(=O)COCCOCCNC(=O)COCCOCCNC(=O)CC[C@H](NC(=O)CCCCCCCCCCCCCCCCCCC(=O)O)C(=O)O)NC(=O)[C@H](CC(C)C)NC(=O)[C@H](CCCNC(=N)N)NC(=O)[C@H](CO)NC(=O)[C@@H](NC(=O)[C@H](CC(=O)O)NC(=O)[C@H](CO)NC(=O)[C@@H](NC(=O)[C@H](Cc1ccccc1)NC(=O)[C@@H](NC(=O)CNC(=O)[C@H](CCC(=O)O)NC(=O)C(C)(C)NC(=O)[C@@H](N)Cc1c[nH]cn1)[C@@H](C)O)[C@@H](C)O)C(C)C)C(=O)N[C@@H](CCC(=O)O)C(=O)N[C@@H](Cc1c[nH]cn1)C(=O)N[C@@H](CC(C)C)C(=O)N[C@H](C(N)=O)C(C)C [compound 1] (H-H[Aib]EGTFTSDVSRLK([AEEA-AEEA-γGlu-C20 diacid])EEAA[Aib]QRFLEHLV-NH2) | 11494 | – | – | 0.08 | – | 4325 | 0.0398 | 158
CC(C)C[C@H](NC(=O)[C@H](Cc1ccccc1)NC(=O)[C@H](CCCNC(=N)N)NC(=O)[C@H](CCC(N)=O)NC(=O)[C@H](CCC(=O)O)NC(=O)[C@H](C)NC(=O)[C@H](C)NC(=O)C(C)(C)NC(=O)[C@H](CCC(=O)O)NC(=O)[C@H](CCCCNC(=O)COCCOCCNC(=O)COCCOCCNC(=O)CC[C@H](NC(=O)CCCCCCCCCCCCCCCCCCC(=O)O)C(=O)O)NC(=O)[C@H](CC(C)C)NC(=O)[C@H](CCC(=O)O)NC(=O)[C@H](CO)NC(=O)[C@@H](NC(=O)[C@H](CC(=O)O)NC(=O)[C@H](CO)NC(=O)[C@@H](NC(=O)[C@H](Cc1ccccc1)NC(=O)[C@@H](NC(=O)CNC(=O)[C@H](CCC(=O)O)NC(=O)C(C)(C)NC(=O)[C@@H](N)Cc1c[nH]cn1)[C@@H](C)O)[C@@H](C)O)C(C)C)C(=O)N[C@@H](CCC(=O)O)C(=O)N[C@@H](Cc1c[nH]cn1)C(=O)N[C@@H](CC(C)C)C(=O)N[C@H](C(N)=O)C(C)C [compound 18] (H-H[Aib]EGTFTSDVSELK([AEEA-AEEA-γGlu-C20 diacid])E[Aib]AAEQRFLEHLV-NH2) | 12140 | – | – | 0.09 | – | 16263 | 0.0316 | 501
CC(C)C[C@H](NC(=O)[C@H](Cc1ccccc1)NC(=O)[C@H](CCCNC(=N)N)NC(=O)[C@H](CCC(N)=O)NC(=O)C(C)(C)NC(=O)C(C)(C)NC(=O)[C@H](C)NC(=O)[C@H](CCC(=O)O)NC(=O)[C@H](CCC(=O)O)NC(=O)[C@H](CCCCNC(=O)COCCOCCNC(=O)COCCOCCNC(=O)CC[C@H](NC(=O)CCCCCCCCCCCCCCCCCCC(=O)O)C(=O)O)NC(=O)[C@H](CC(C)C)NC(=O)[C@H](Cc1ccc(O)cc1)NC(=O)[C@H](CO)NC(=O)[C@@H](NC(=O)[C@H](CC(=O)O)NC(=O)[C@H](CO)NC(=O)[C@@H](NC(=O)[C@H](Cc1ccccc1)NC(=O)[C@@H](NC(=O)CNC(=O)[C@H](CCC(=O)O)NC(=O)C(C)(C)NC(=O)[C@@H](N)Cc1c[nH]cn1)[C@@H](C)O)[C@@H](C)O)C(C)C)C(=O)N[C@@H](CCC(=O)O)C(=O)N[C@@H](Cc1c[nH]cn1)C(=O)N[C@@H](CC(C)C)C(=O)N[C@H](C(N)=O)C(C)C [compound 152] (H-H[Aib]EGTFTSDVSYLK([AEEA-AEEA-γGlu-C20 diacid])EEA[Aib][Aib]QRFLEHLV-NH2) | 3105 | 0.0126 | 367578 | 0.08 | 3980 | – | – | –
CC[C@H](C)[C@H](NC(=O)[C@H](Cc1ccccc1)NC(=O)[C@H](CCCNC(=N)N)NC(=O)[C@H](CCC(N)=O)NC(=O)[C@H](CC(C)C)NC(=O)[C@H](C)NC(=O)[C@H](C)NC(=O)CNC(=O)[C@H](CCC(=O)O)NC(=O)[C@H](CC(C)C)NC(=O)[C@H](CC(C)C)NC(=O)[C@@H](NC(=O)[C@H](CO)NC(=O)[C@@H]1CCCN1C(=O)[C@H](CC(=O)O)NC(=O)[C@H](CO)NC(=O)[C@@H](NC(=O)[C@H](Cc1ccccc1)NC(=O)[C@@H](NC(=O)CNC(=O)[C@H](CCC(=O)O)NC(=O)C(C)(C)NC(=O)[C@@H](N)Cc1c[nH]cn1)[C@@H](C)O)[C@@H](C)O)C(C)C)C(=O)N[C@@H](CCC(N)=O)C(=O)N[C@@H](Cc1c[nH]c2ccccc12)C(=O)N[C@@H](CC(C)C)C(=O)N[C@H](C(N)=O)C(C)C [compound 129] (H-H[Aib]EGTFTSDPSVLLEGAALQRFIQWLV-NH2) | 5327 | 7.94 | 1220 | 0.12 | 10000 | – | – | –
